Experimental findings from patent US20260001868A1, “HETEROCYCLIC COMPOUND CAPABLE OF INHIBITING PRMT5-MTA AND USE THEREOF” (Xizang Haisco Pharmaceutical Co., Ltd., priority 2022, published 2026) are described below.

Where two headings read alike, the source gives them in different places. Some results are limits rather than exact numbers.

In data set [1] the target is PRMT5/MEP50 (Homo sapiens (Human), UniProt O14744). In words: PRMT5 enzyme activity test (Alpha detection). It is filed as biochemical. Conditions: PRMT5/MEP50 1 nM, absence of MTA. As for the experimental part:
(§1) 1× test buffer (10 mM Tris, 1 mM DTT, 0.01% BSA, 0.01% Tween-20, adjusted to pH 8.0) was prepared. The test compound was dissolved in DMSO to prepare a 10 mM mother liquor, and the mother liquor was diluted to a 100-fold final concentration. 100 nL of the compound was added to each well of the administration group, and 100 nL of DMSO solution was added to blank wells and negative control wells. Then, 5 μL of a PRMT5/MEP50 (BPS, Cat #31921) enzyme solution (final concentration: 1 nM) was added to the wells of the administration group and negative control wells, and 5 μL of 1× test buffer was added to the blank wells. Incubation was performed at room temperature for 15 minutes. […] 1× Epigenetics buffer (PerkinElmer, Cat #AL008F) was prepared and used for diluting acceptor microbeads and donor microbeads. 15 μL of acceptor microbeads (final concentration: 10 μg/mL; PerkinElmer, Cat #AL150C) and donor microbeads (final concentration: 10 μg/mL; PerkinElmer, Cat #AS106M) were added and incubated at room temperature for 1 hour in the dark. Then, detection was performed using the Alpha module of the reader Enspire microplate. Based on the obtained data, the inhibition rate was calculated in Excel according to: inhibition rate (%)=(maximum value negative control−detection signal value)/(maximum value negative control−minimum value blank control)×100, and IC50 values were fitted by using XL-Fit.

For data set [2], the target named is PRMT5⋅MTA (Homo sapiens (Human), UniProt O14744). In words: PRMT5 MTA enzyme activity test (Alpha detection). It counts as biochemical. Conditions: PRMT5/MEP50 1 nM with MTA 1 μM. How it is done:
as §1, with “of a solution of PRMT5/MEP50 (BPS,” for “of a PRMT5/MEP50 (BPS,”, “Cat #31921) (final concentration:” for “Cat #31921) enzyme solution (final concentration:”, “1 nM) and MTA (final concentration: 1 μM) was added” for “1 nM) was added”, “Enspire microplate.” for “Enspire microplate. Based on the obtained data, the inhibition rate was calculated in Excel according to: inhibition rate (%)=(maximum value negative control−detection signal value)/(maximum value negative control−minimum value blank control)×100, and IC50 values were fitted by using XL-Fit.”
Based on the obtained data, the inhibition rate was calculated in Excel according to: inhibition rate (%)=(maximum value negative control−detection signal value)/(maximum value negative control−minimum value blank control)×100, and IC50 values were fitted by using XL-Fit.

Data set [3] relates to MIAPACA-2 cells. In words: MIAPACA-2 cell proliferation inhibition experiment. It is filed as cell-based. From the text:
(§2) The chemiluminescence readings were detected by a microplate reader.

In data set [4] the test system is SDMA production in HCT-116 MTAP−/− cells. As to conditions: read-out: HCT-116 MTAP−/− SDMA (IC50); 3 days incubation.
Experimental: HCT-116 MTAP−/− cells were cultured in an RPMI 1640 culture medium (ATCC, #30-2001; supplemented with 10% FBS and 1% double antibody) until the confluence reached about 85%, and then the cells were plated. The culture medium was discarded, and the cells were rinse with 1×PBS and digested by trypsin (Gibco, Cat #15400-054). When the cells became round and began to fall off, the digestion was terminated by adding the culture medium. The cells were pipetted, transferred to a sterile centrifuge tube and centrifuged at 1000 rpm for 3 minutes, and after the centrifugation, the supernatant was discarded. The cells were resuspended by adding the culture medium to the centrifuge tube and then counted. According to the counting results, the cell suspension was adjusted to an appropriate concentration and poured into a loading slot. 100 μL of the cell suspension was added to each well of the 96-well plate. The compound was dissolved in DMSO to 10 mM and stored for later use. […] 100 μL of the Immobilon Forte Western HRP substrate (Millipore, Cat #WBLUF0500) was added to each well and incubated with shaking for 15 minutes, followed by chemiluminescence detection using the BMG microplate reader. After data normalization (SDMA reading/SMD3 reading), Graphpad Prism 8.3.0 software was used to plot the data, and the IC50 value was calculated.
The test system of data set [5] is SDMA production in HCT-116 cells. In words: SDMA detection in HCT-116 cells. It counts as cell-based. As to conditions: 3 days incubation.
Experimental: HCT-116 cells were cultured in an RPMI 1640 culture medium (ATCC, Cat #30-2001; supplemented with 10% FBS and 1% double antibody) until the confluence reached about 85%, and then the cells were plated. The culture medium was discarded, and the cells were rinse with 1×PBS and digested by trypsin (Gibco, Cat #15400-054). When the cells became round and began to fall off, the digestion was terminated by adding the culture medium. The cells were pipetted, transferred to a sterile centrifuge tube and centrifuged at 1000 rpm for 3 minutes, and after the centrifugation, the supernatant was discarded. The cells were resuspended by adding the culture medium to the centrifuge tube and then counted. According to the counting results, the cell suspension was adjusted to an appropriate concentration and poured into a loading slot. 100 μL of the cell suspension was added to each well of the 96-well plate. The compound was dissolved in DMSO to 10 mM and stored for later use. […] 100 μL of the Immobilon Forte Western HRP substrate (Millipore, Cat #WBLUF0500) was added to each well and incubated with shaking for 15 minutes, followed by chemiluminescence detection using the BMG microplate reader. After data normalization (SDMA reading/SMD3 reading), Graphpad Prism 8.3.0 software was used to plot the data, and the IC50 value was calculated.
Data set [6] deals with HCT-116 MTAP−/− cells.
Experimental: HCT-116 MTAP^−/− cells were cultured in an RPMI 1640 culture medium (ATCC, Cat #30-2001; supplemented with 10% FBS and 1% double antibody) until the confluence reached about 85%, and then the cells were plated. The culture medium was discarded, and the cells were washed with 1×PBS and digested by trypsin (Gibco, Cat #15400-054). When the cells became round and began to fall off, the digestion was terminated by adding the culture medium. The cells were pipetted, transferred to a sterile centrifuge tube and centrifuged at 1000 rpm for 3 minutes, and after the centrifugation, the supernatant was discarded. The cells were resuspended by adding the culture medium to the centrifuge tube and then counted. According to the counting results, the cell suspension was adjusted to an appropriate concentration and poured into a loading slot. The cell suspension was added to a first 96-well plate (Corning, Cat #3903), and added to 10 wells (as Day 0 wells) in a second 96-well plate. The compound was dissolved in DMSO to 10 mM and stored for later use. […] The chemiluminescence readings were detected by a microplate reader. The cell proliferation inhibition rate was calculated according to the following formula: [1−(25×T test−T0/25×T control−T0)]×100, and then the GI50 value of the compound for inhibiting cell proliferation was calculated using the DoseResp function and the Origin 9.2 software.
Data set [7] relates to HCT-116 cells. In words: HCT-116 cell proliferation inhibition experiment. It is filed as cell-based.
From the text: as §2

On the set-up of data set [8]: species or system beagle dogs. Conditions: dog, in vivo. As for the experimental part: 10.1 Experimental animals: male beagle dogs, about 8-11 kg, 6 beagle dogs/compound, purchased from Beijing Marshall Biotechnology Co., Ltd.
10.2 Experimental method: On the day of the experiment, (6× number of test compounds (n)) beagle dogs were randomly divided into groups according to their body weights. The animals were fasted but with water available for 12 to 14 h one day before the administration and were fed 4 h after the administration. Administration was carried out according to Table 8.
Before and after the administration, 1 mL of blood was taken from the jugular veins or limb veins, and placed in an EDTAK2 centrifuge tube. Centrifugation was performed at 5000 rpm at 4° C. for 10 min, and the plasma was collected. The blood collection time points for the intravenous administration group and intragastric administration group were 0 min, 5 min, 15 min, 30 min, 1 h, 2 h, 4 h, 6 h, 8 h, 10 h, 12 h and 24 h. Before analysis and detection, all samples were stored at −80° C., and a quantitative analysis of samples was performed using LC-MS/MS.

Setting [9] is: Homo sapiens, MIA PaCa-2, 120 h, read-out: MIAPACA-2 (day 5 GI50).
[10] abbreviates: day 5, read-out: MIAPACA-2 (day 5 GI50).
The mark [11] stands for this setting: day 10, read-out: MIAPACA-2 (day 10 GI50).

Chain of PRMT5⋅MTA (O14744 whole entry): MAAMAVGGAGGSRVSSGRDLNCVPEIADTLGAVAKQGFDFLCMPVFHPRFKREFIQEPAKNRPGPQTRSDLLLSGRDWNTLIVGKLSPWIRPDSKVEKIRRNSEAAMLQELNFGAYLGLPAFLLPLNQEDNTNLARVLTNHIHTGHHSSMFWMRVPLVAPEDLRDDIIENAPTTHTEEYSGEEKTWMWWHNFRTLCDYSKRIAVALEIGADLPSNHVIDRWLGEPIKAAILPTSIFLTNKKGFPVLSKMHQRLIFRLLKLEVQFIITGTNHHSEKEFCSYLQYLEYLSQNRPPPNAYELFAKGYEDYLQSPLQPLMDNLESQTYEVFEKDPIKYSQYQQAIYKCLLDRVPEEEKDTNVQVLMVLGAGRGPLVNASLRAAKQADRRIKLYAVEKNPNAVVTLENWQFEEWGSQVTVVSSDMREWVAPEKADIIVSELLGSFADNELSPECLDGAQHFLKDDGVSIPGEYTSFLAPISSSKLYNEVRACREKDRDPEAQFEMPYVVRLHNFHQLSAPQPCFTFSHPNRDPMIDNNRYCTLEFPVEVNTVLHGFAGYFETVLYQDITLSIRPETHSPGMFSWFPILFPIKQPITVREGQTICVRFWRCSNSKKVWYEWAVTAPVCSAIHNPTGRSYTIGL
Chain of PRMT5⋅MTA (Q9BQA1 whole entry partner): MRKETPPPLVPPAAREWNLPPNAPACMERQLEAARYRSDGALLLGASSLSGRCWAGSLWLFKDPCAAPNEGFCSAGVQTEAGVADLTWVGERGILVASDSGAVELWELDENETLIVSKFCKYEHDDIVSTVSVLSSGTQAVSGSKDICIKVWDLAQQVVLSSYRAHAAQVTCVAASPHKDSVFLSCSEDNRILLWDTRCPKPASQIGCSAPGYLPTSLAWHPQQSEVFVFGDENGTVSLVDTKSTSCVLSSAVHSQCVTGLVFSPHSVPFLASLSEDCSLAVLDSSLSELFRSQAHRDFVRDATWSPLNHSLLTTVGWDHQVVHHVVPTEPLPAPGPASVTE
Chain of PRMT5/MEP50 (O14744 whole entry): as the sequence (O14744 whole entry) above
Chain of PRMT5/MEP50 (Q9BQA1 whole entry partner): as the sequence (Q9BQA1 whole entry partner) above

As to `Cn1ncc(-c2ccc3c(=O)[nH]cc(CN)c3c2)c1-c1c(F)c(Cl)cc(OC2CC2)c1C#N` [Compound 1, 2-(4-(4-(aminomethyl)-1-oxo-1,2-dihydroisoquinolin-6-yl)-1-methyl-1H-pyrazol-5-yl)-4-chloro-6-cyclopropoxy-3-fluorobenzonitrile], the IC50 is 10 to 50 nM in data set [1] and 1 to 10 nM in data set [2] (read-out: PRMT5•MTA).
Turning to `Cn1ncc(-c2ccc3c(=O)[nH]c(CN)nc3c2)c1-c1c(F)c(Cl)cc(OC2CC2)c1C#N` [Compound 5, 2-(4-(2-(aminomethyl)-4-oxo-3,4-dihydroquinazolin-7-yl)-1-methyl-1H-pyrazol-5-yl)-4-chloro-6-cyclopropoxy-3-fluorobenzonitrile], the GI50 was under 50 nM in data set [3] (setting [9]) and under 50 nM in data set [3] (Homo sapiens, MIA PaCa-2, 240 h, read-out: MIAPACA-2 (day 10 GI50)).
On to `Cn1ncc(-c2ccc3c(=O)[nH]c(CN)nc3c2)c1-c1c(F)c(Cl)cc(OC2CC2)c1C#N` [Compound 11, (2S)-2-(4-(2-(aminomethyl)-4-oxo-3,4-dihydroquinazolin-7-yl)-1-methyl-1H-pyrazol-5-yl)-4-chloro-6-cyclopropoxy-3-fluorobenzonitrile], for which the GI50 in data set [3] (setting [10]) and in data set [3] (setting [11]) was under 50 nM throughout.
Regarding `Cn1ncc(-c2ccc3c(=O)[nH]c(CN)nc3c2)c1-c1c(F)c(Cl)cc(OC2(C)CC2)c1C#N` [Compound 14, (2S)-2-(4-(2-(aminomethyl)-4-oxo-3,4-dihydroquinazolin-7-yl)-1-methyl-1H-pyrazol-5-yl)-4-chloro-3-fluoro-6-(1-methylcyclopropoxy)benzonitrile], the GI50 in data set [3] (setting [10]) is under 50 nM.
As for `Cn1ncc(-c2cc(N3CCC3)c3c(=O)[nH]nc(CN)c3c2)c1-c1c(F)c(Cl)cc(OC2CC2)c1C#N` [Compound 22, 2-(4-(4-(aminomethyl)-8-(azetidin-1-yl)-1-oxo-1,2-dihydrophthalazin-6-yl)-1-methyl-1H-pyrazol-5-yl)-4-chloro-6-cyclopropoxy-3-fluorobenzonitrile], the GI50 in data set [3] (setting [9]) is under 50 nM.
For the compound `C=Cc1cc(-c2cnn(C)c2-c2c(F)c(Cl)cc(OC3(C)CC3)c2C#N)cc2c(CN)n[nH]c(=O)c12` [Compound 30, (2R)-2-(4-(4-(aminomethyl)-1-oxo-8-vinyl-1,2-dihydrophthalazin-6-yl)-1-methyl-1H-pyrazol-5-yl)-4-chloro-3-fluoro-6-(1-methylcyclopropoxy)benzonitrile], the IC50 in data set [4] was 3.39 nM; in data set [5] it was 499 nM; in data set [1], 1 to 10 nM; in data set [2] (read-out: IC50 value for PRMT5⋅MTA) it was 0.8 nM; in data set [2] (read-out: PRMT5•MTA) it was under 1 nM. For the same compound, the GI50 in data set [6] (read-out: HCT-116 MTAP−/− (day 5 GI50), day 5) was 38.2 nM; in data set [6] (read-out: HCT-116 MTAP−/− (day 10 GI50), day 10) it was 19.9 nM; in data set [7] (day 5, read-out: HCT-116 (day 5 GI50)) it was over 500 nM; in data set [7] (day 10, read-out: HCT-116 (day 10 GI50)) it was over 500 nM; in data set [3] (setting [10]) it was under 50 nM; in data set [3] (setting [11]) it was under 50 nM. This compound showed a CL in data set [8] (iv, 5 mg/kg) of 0.313 mL/min/kg. The compound also came in with an AUC0-t in data set [8] (po, 10 mg/kg) of 178.458 µg·h/mL. The T1/2 in data set [8] (po, 10 mg/kg) was 16.1 h.
